Data as given in article PMC12266748, “A Xanthine Derivative With Novel Heat Shock Protein 90‐Alpha Inhibitory and Senolytic Properties” (Aging Cell, 2025).
pIC50: −log10 of the molar value.

Assays:
[1] = Phase I stability in mouse liver microsomes; format: in vitro ADME; settings: 1 µM, 0.5 mg/mL microsomes
Experimental: (§1) APHAD S.r.l (Buccinasco, MI, Italy) performed all evaluations. Detailed protocols are reported in the extended methods section.
(§2) Phase I stability in human and mouse liver microsomes. The metabolic stability of K4 and K5 was evaluated after incubation with mouse and human liver microsomes. Briefly, the 2 compounds were dissolved in DMSO and pre-incubated, at the final concentration of 1µM, for 10 min at 37°C in potassium phosphate buffer 50 mM, pH 7.4, 3 mM MgCl2, with mouse and human liver microsomes (Sigma) at the final concentration of 0.5 mg/mL. After the pre-incubation period, reactions were started by adding the cofactors mixture (NADP, Glc6P, Glc6P-DH in 2% Sodium bicarbonate); samples were taken at time 0, 10, 20, 30, and 60 min, and added to ACN with Verapamil 0.1 µM as Internal Standard (IS) to stop the reaction. After centrifugation, the supernatants were analyzed using LC-MS/MS. A control sample without cofactors was added to check the stability of test compounds in the matrix after 60 min. 7-Ethoxycoumarin (7-EC) and propranolol were added as positive reference standards. Samples were analyzed on Acquity UPLC (Waters) coupled with an API 3200 Triple Quadrupole ABSciex. […] The percent of the area of the test compound remaining at the various incubation times was calculated based on the area of the compound at time 0 min. […]

[2] = Phase I stability in human liver microsomes; format: in vitro ADME; settings: 1 µM, 0.5 mg/mL microsomes
Experimental: as §1, §2

GRP94 = GRP94 (Homo sapiens, UniProt P14625); assay: Cellular thermal shift assay (CETSA) on cellular lysates, GRP94; settings: 46°C, compound 0.5 mM
Chain of GRP94 (P14625 22-803): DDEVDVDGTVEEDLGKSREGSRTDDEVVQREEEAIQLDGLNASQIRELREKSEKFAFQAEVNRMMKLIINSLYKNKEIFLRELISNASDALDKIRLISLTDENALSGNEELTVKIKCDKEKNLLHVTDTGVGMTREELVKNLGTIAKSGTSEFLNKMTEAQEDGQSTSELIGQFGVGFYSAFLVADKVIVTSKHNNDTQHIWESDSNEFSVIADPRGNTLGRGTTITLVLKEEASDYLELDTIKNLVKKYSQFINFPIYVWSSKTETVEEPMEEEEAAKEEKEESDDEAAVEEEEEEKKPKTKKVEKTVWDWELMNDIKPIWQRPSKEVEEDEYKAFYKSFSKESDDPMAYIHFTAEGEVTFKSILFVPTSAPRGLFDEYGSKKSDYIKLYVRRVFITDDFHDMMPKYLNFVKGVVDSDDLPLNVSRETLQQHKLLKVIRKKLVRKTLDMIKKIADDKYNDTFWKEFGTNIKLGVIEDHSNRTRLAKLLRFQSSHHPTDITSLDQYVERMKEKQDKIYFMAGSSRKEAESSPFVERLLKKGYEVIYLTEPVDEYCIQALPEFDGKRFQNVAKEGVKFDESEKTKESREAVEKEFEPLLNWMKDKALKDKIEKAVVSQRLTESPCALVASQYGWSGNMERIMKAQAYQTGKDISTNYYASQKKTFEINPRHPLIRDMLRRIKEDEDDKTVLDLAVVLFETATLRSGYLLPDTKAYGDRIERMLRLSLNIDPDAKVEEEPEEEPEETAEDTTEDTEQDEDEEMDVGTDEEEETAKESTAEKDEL
Experimental: (§3) Cellular Thermal Shift Assay (CETSA). […] Briefly, the cellular extract was lysed in RIPA buffer (10 mM Tris-HCl pH 7.4, 250 mM NaCl, 1% NP40/IGEPAL, 1% DOC, 0.01% SDS, 0.01% Glycerol, supplemented with protease/phosphatase inhibitor, PI/PhI mix and 2 mM DTT) and protein concentration was determined by a BCA kit (Pierce, Life Technologies, TFS, Waltham, MA, USA). Samples were homogenized by 3 cycles of freeze-thawing using liquid nitrogen and centrifuged at 13000 rpm at 4 °C for 30 min to separate the soluble fraction from the debris.
(§4) Following the supplier's recommendations, samples were loaded into the proper cartridge (12- 230 kDa Wes/Jess Separation Modules, ProteinSimple, Biotechne, Minneapolis, MN, USA). HSP90α (1:50, MsMAb, Abcam), HSP90β (1:50, RbMAb, Abcam), GRP94 (1:50, RbMAb, Abcam), TRAP1 (1:50, MsMAb, Abcam), α-Tubulin (1:500, MsMAb, Abcam), and β-Actin (1:500, RbMAb, Abcam) were used as primary antibodies. Secondary antibodies were Anti-Mouse Secondary HRP and Anti-Rabbit Secondary HRP (ProteinSimple, Biotechne, Minneapolis, MN, USA).

HSP90α [3] = target: T1, HSP90α (Homo sapiens, UniProt P07900); assay: HSP90 N-Terminal Domain Assay Kit, fluorescence polarization competition with FITC-Geldanamycin; format: binding; design: purchased BPS Bioscience 50293; settings: dose-response 1 pM to 10 μM, n = 3, extrapolated with GraphPad Prism; read-out: HSP90α inhibition IC50
Experimental: HSP90‐directed inhibitory activity was assessed employing the HSP90 N‐Terminal Domain Assay Kit (BPS Bioscience) according to the manufacturer's instructions. The fluorescence intensity was measured with a multiplate reader (Victor Nivo‐Perkin Elmer). The IC50 was calculated by analyzing the data using GraphPad Prism 10 software.
HSP90 inhibition activity assay. […] […] […] Data are the percentage of residual enzyme activity relative to the solvent (DMSO). The IC50s were calculated by analyzing the data using GraphPad Prism 10 software.

TRAP1 = target: T2, TRAP1 (Homo sapiens, UniProt Q12931); assay: Cellular thermal shift assay (CETSA) on cellular lysates, TRAP1; settings: 46°C, compound 0.5 mM
T2 sequence (Q12931 60-704): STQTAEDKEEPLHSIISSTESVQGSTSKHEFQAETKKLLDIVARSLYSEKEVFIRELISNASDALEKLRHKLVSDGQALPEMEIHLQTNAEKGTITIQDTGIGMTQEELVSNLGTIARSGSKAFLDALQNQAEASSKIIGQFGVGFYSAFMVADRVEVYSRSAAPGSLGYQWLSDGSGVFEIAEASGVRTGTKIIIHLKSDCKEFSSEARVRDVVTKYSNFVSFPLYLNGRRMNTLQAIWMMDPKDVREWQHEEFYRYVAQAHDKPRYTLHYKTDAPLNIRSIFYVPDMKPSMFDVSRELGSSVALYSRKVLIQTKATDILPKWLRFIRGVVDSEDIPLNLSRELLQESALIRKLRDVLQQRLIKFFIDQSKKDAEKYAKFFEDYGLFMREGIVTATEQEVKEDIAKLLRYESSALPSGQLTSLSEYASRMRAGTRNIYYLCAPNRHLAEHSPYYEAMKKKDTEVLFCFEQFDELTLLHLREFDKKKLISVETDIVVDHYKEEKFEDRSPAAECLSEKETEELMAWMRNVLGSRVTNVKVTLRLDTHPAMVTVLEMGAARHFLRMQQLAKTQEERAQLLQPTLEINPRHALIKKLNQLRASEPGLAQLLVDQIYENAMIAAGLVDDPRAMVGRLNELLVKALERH
Experimental: as §3, §4

HSP90α [4] = target: T1, HSP90α; assay: Cellular thermal shift assay (CETSA) on cellular lysates, HSP90α; settings: 46°C, compound 0.5 mM
Experimental: as §3, §4

[5] = Thermodynamic solubility, shake flask method; format: physicochemical; settings: PBS buffer; PBS pH 7.4, 24 h at 37°C
Experimental: as §1
Thermodynamic solubility. The shake flask method measured the thermodynamic solubility of K4 and K5 in PBS buffers at pH 7.4. A saturated solution of the compounds was prepared by incubating the 2 compounds in PBS buffer for 24 h at 37°C under agitation. At the end of the incubation, samples were centrifuged, two aliquots were diluted in acetonitrile (CAN), and each sample was then injected into LC-MS/MS (ESI interface) and quantified on a calibration curve prepared by sequential dilution in ACN. Samples were analyzed on UPLC Acquity (Waters) interfaced with API 3200 (AB Sciex) Triple Quadrupole Mass spectrometer. For K4, a Synergy Polar C18 column was used (50x2, 1mm 5µm, Phenomenex, Temp 35°C, Inj volume 10 µL, mobile phase A: water +0.1% FA, and phase B: ACN 0.1% FA, gradient: 5%-98% B, flow: 0.3 mL/min). For K5, a Gemini NX C18 column was used (50x2, 1mm 5µm, Phenomenex, Temp 35°C, Inj volume 10 µL, mobile phase A: 5mM ammonium formate +0.1% FA, and phase B: MeOH +5%, gradient: 5%-98% B, flow: 0.3 mL/min).

Row | SMILES | clearance in mouse microsomes [1] | metabolic stability in human microsomes [2] | stabilization of GRP94 in CETSA (GRP94) | pIC50 (HSP90α [3]) | stabilization of TRAP1 in CETSA (TRAP1) | interaction / stabilization of HSP90α in CETSA (HSP90α [4]) | solubility thermodynamic at 24 h [5] [µg/mL]
1 | CC(C)(C)S(=O)(=O)C/C(N)=N/OS(=O)(=O)c1ccc(F)cc1F [Compound K4, (Z)-N'-[(2,4-difluorobenzenesulfonyl)oxy]-2-(2-methylpropane-2-sulfonyl)ethanimidamide] | medium clearance | stable | did not observe a stabilization | 6.81 | did not observe a stabilization | potent and selective interaction | ~400
2 | Cc1ccccc1-n1c(=O)n(Cc2ccccc2)c(=O)c2[nH]cnc21 [Compound K5, 1-benzyl-3-(2-methylphenyl)-7H-purine-2,6-dione] | medium clearance | stable | did not observe a stabilization | 6.95 | did not observe a stabilization | potent and selective interaction | ~200
